From patent publication US4737513A, “Novel pyrrole derivatives” (Roussel Uclaf, priority 1984, dated 1988)

Columns and labels:
Type in all cases: in vivo
[1] = test system: cockroaches (Blatella germanica); experiment: Study of activity by tarsal contact on cockroaches; details: male Blatella germanica; 1 hour on dried acetone deposit; mortality checked at 24 hours, 48 hours, 3 days and 5 days
Procedure: (2) Study of activity by tarsal contact on cockroaches
The insects tested were male cockroaches (Blatella germanica) and the test was carried out by depositing an acetone solution of a certain concentration on the bottom of a Petri dish 20 cm in diameter. After this had dried, 20 male cockroaches were allowed to stay there per concentration for 1 hour, after which they were transferred to a healthy medium and their mortality was checked at 24 hours, 48 hours, 3 days and 5 days. The result was expressed as lethal concentration 50 (LC 50) in mg/m^2.

[2] = test system: house flies; experiment: Study of knock-down activity of house flies (direct atomization in a Kearns and March chamber); details: concentration at 0.1 g/l; female house flies 4 days old; acetone (5%) and Isopar L
Procedure: (1) Study of knock-down activity of house flies
The test insects were female house flies 4 days old and the test was effected by direct atomization in a Kearns and March chamber using as solvent a mixture of acetone (5%) and Isopar L (petrol solvent) (quantity of solvent used, 2 ml in one second). 50 insects were used per treatment and checks were made every minute for 10 minutes, then at 15 minutes, and the KT50 was determined by the usual methods.

[3] = test system: Tetranychus urticae; experiment: Activity on Tetranychus urticae, test of lethal effect on adults; details: females on treated bean leaves; checked after 80 hours of contact
Procedure: (4) Activity on Tetranychus urticae, test of lethal effect on adults
Bean plants having two cotyledon leaves were used which were treated with a Fisher gun with an acetone solution of the product. After drying, 25 females of the acaridan Tetranychus urticae were placed on each leaf, that is 50 individuals per experimental dose per plant. The efficacity was checked after 80 hours of contact, and the LD 50 was indicated in mg/hl.

[4] = test system: Aphis cracivora; experiment: Study of lethal effect on Aphis cracivora (contact-ingestion method); parameters: unit not given here; details: adults 7 days old; 1 hour contact with treated bean leaf; mortality checked after 24 hours
Procedure: (3) Study of lethal effect on Aphis cracivora
Adults 7 days old were used with 10 aphis per concentration using a contact-ingestion method. The treatment was carried out with a Fisher gun on a bean leaf which was placed in a plastic Petri dish on a disc of moistened paper. 2 ml of an acetone solution of the product under test were used with 1 ml per face of the leaf and the insect infestation was carried out after drying the leaf. The insects were kept in contact with the leaf for 1 hour and then they were placed on untreated leaves.

SMILES: C#CCn1ccc(COC(=O)[C@@H]2[C@H](/C=C(\Cl)C(F)(F)F)C2(C)C)c1C#N [Example 43, [2-cyano-1-(2-propynyl)-1H-pyrrol-3-yl]-methyl (1R,cisΔZ) 2,2-dimethyl-3-[(2-chloro-3,3,3-trifluoro)-1-propenyl]-cyclopropane carboxylate]
- lethal concentration 50 (LC 50) [1]: 2.8 mg/m^2
- KT 50 [2]: 2.9 min
- LD 50 [3]: 342 mg/hl
- LD 50 [4]: 7.5

SMILES: C#CCn1ccc(COC(=O)[C@@H]2[C@@H](C=C(Cl)C(F)(F)F)C2(C)C)c1C#N [Example 49, [1-(2-propynyl)-2-cyano-1H-pyrrol-3-yl]-methyl 1R, trans (E,1/3) (Z,2/3) 2,2-dimethyl-3-(2-chloro-2-trifluoromethylethenyl)-cyclopropane carboxylate]
- KT 50 [2]: 11.0 min
- LD 50 [4]: 6.5
